Measured values published in patent US4970205A, “Sulfonic acid substituted aromatic steroids as inhibitors of steroid 5-α-reductase” (SmithKline Beecham Corporation, priority 1988, dated 1990).
Where two headings read alike, the source gives them in different places.

How the values were obtained:
steroid 5-α-reductase = conditions: cited from earlier work; for Ki / reversibility of inhibition (with Ki): Table I; for time-dependence of 5-α-reductase inhibition: footnote text of Table I
[1] = target: T1, human steroid 5-α-reductase (Homo sapiens, UniProt P31213); test: inhibition of human steroid 5-α-reductase using tissue from hyperplastic human prostates ([14C]-testosterone conversion, Dixon plot); assay type: biochemical; conditions: human prostatic particulate, pH 5.0, 37° C., 20 to 30 minutes; competitive against testosterone assumed
T1 construct: Frozen human prostates were thawed and minced into small pieces; from tissue; host or cells: hyperplastic human prostate, 140,000 x g particulate fraction
T1 sequence (P31213 1-254): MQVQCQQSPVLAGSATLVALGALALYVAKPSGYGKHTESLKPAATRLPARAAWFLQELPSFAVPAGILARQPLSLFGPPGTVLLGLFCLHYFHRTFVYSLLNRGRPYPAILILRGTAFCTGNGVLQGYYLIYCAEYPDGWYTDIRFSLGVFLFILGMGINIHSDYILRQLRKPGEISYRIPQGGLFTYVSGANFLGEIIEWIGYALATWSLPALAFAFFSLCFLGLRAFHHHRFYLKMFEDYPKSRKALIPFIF
Experimental: A compound of the invention, potassium 17b-(N,N-diisopropylcarboxamide)-estr-1,3,5(10)-triene-3-sulfonate, was tested for potency in inhibiting human steroid 5-α-reductase using tissue from hyperplastic human prostates. In determining potency in inhibiting the human enzyme, the following procedure was employed:
Frozen human prostates were thawed and minced into small pieces (5 mm^3). The tissue was homogenized in 3 to 5 volumes of 20 mM potassium phosphate buffer, pH 6.5, containing 0.33 M sucrose, 1 mM dithiothreitol, and […] with a Brinkmann Polytron (Sybron Corporation, Westbury, N.Y.). The solution was subjected to sonication for 3 to 5 minutes with a Sonifier (Branson Sonic Power Co.) followed by hand homogenization in a glass-to-glass Dounce homogenizer (Kontes Glass Company, Vineland, N.J.). […]
A constant amount of [^14 C]-testosterone (52 to 55 mCi/mmol, New England Nuclear, Boston, Mass.) in ethanol and varying amounts of the potential inhibitor in ethanol were deposited in test tubes and concentrated to dryness in a SAVANT Speed Vac. […] The radiochemical content in the bands of the substrate and the products was determined with a BIOSCAN Imaging Scanner (Bioscan, Inc., Washington, D.C.). The percent of recovered radiolabel converted to product was calculated, from which enzyme activity was determined. […]

SMILES	Ki (steroid 5-α-reductase)	reversibility of inhibition (with Ki) (steroid 5-α-reductase)	Ki (steroid 5-α-reductase; unit inferred)	time-dependence of 5-α-reductase inhibition (steroid 5-α-reductase)	Ki [1]
CC12CCC(=O)C=C1CCC1C2CCC2(C)C(C(=O)O)CCC12 (stereo not shown) [(1)]	1100 nM	Reversible			
CC(=O)C1CCC2C3CC=C=CC(=O)CCC(=O)C3CCC12C (stereo not shown) [(2)]	1000 nM	Irreversible			
CC(CO)C1CCC2C3CCC4C(=[N+]=[N-])C(=O)CCC4(C)C3CCC12C (stereo not shown) [(3)]		Irreversible	35 nM	potent, time-dependent	
CCN(CC)C(=O)C1CCC2C3CCC4N(C)C(=O)CCC4(C)C3CCC12C (stereo not shown) [(4)]	5 nM	Reversible			
C=C1CC2C(CCC3(C)C2CCC3(OC(C)=O)C(C)=O)C2(C)CCC(=O)C=C12 (stereo not shown) [(5)]	1250 nM	Irreversible		time-dependent inactivator	
CC(C)N(C(=O)[C@H]1CC[C@H]2[C@@H]3CCc4cc(S(=O)(=O)O)ccc4[C@H]3CC[C@]12C)C(C)C [Potassium 17β-(N,N-Diisopropylcarboxamide)-estr-1,3,5(10)-triene-3-sulfonate]					10 nM
